Measurements from article doi:10.1101/2019.12.11.872838v1 (biorxiv, 2019).

Target: KDM1A (Homo sapiens, UniProt O60341)
Assay: ALPHA screen demethylation assay
Assay type: biochemical

SMILES: CO[C@H]1/C=C\C=C(/C)C(=O)NC2=CC(=O)C(NCCN(C)C)=C(C[C@@H](C)C[C@H](OC)[C@H](O)[C@@H](C)/C=C(\C)[C@@H]1OC(N)=O)C2=O [17-DMAG]
- IC50: > 10 µM
